Like-named read-outs stand apart in the source and are kept apart here.
Tests used:
Assay type in all cases: cell-based
[1] = target: OR8/OR7 (Anopheles gambiae, UniProt Q7PUT5+Q7QCC7); assay: Ca2+-imaging of stable HEK293T cell line OR8/OR7; conditions: for inhibition at 4 µM: HEK-293T, compound applied at 4 μM, read-out: Percent Inhibition OR8 OR7
Protocol: (§1) Full-length cDNAs for mosquito (Anopheles gambiae) odorant receptor (OR1, OR2, OR7, OR8, OR28), and fly (Drosophila melanogaster) odorant receptor (Or47a, Or83b), mouse TRP channel (TRPM8), and mouse serotonin receptor (5HT3) were obtained and subcloned into mammalian expression vectors. The following mammalian expression vectors were used:
(§2) Stable cell lines OR1/OR7, OR2/OR7, OR8/OR7, OR10/OR7, OR28/OR7 and TRPM8 were generated from HEK293T cells. HEK293T-based cell lines were cultured in DMEM supplemented with these additional antibiotics: 6 μg/mL blasticidin and 1 μg/mL puromycin, with the exception of the TRPM8 cell lines, which was cultured in DMEM supplemented with 1 μg/mL puromycin.
(§3) Cells were trypsinized and split into 35 mm dishes one day before transfection. Confluent cells (60-70%) in 35 mm dishes were transfected with 1 μg of insect OR(X) plasmids in pME18s-bla and 1 μg of OR7-pME18s-puro using lipofectamine 2000. For Anopheles odorant receptors, two plasmids were co-transfected into HEK cells: the ligand-specific receptor (OR1, OR2, OR8, OR28) and the corresponding olfactory co-receptor: OR7. Cell lines containing TRPM8 were transfected with single plasmid.
(§4) Stable cell lines were cultured in 10 cm dishes, and confluent cells (70-80%) were trypsinized. 10,000 cells/20 μL were transferred into each well of 384-well plates coated with poly-D-lysine, and cultured for 2 days. For Flip-In T-Rex cells (cell lines expressing Or47a/Or83b and 5HT3), 5 μL of tetracycline (5 μg/mL) were added 1 day before the assay. 20 μL of Ca-4 dye was loaded into each well for 1.5 hr at room temperature in the dark, and the dye-loaded plates were subjected to Ca^2+-imaging using a Hamamatsu FDSS6000 real time fluorescence plate reader. Odorant solutions (9× final concentration) were prepared by dissolving 1M stock solutions into Hank's Buffered Salt Solution (HBSS), and 30 μL of odor solution was transferred to each well in 384-well plates.
(§5) Compounds ([…] in DMSO) were stored in 384-well plates, and last two columns (32 wells total) contained only DMSO. 200 nL of small compounds were transferred into the odorant plates before the assay using the Perkin-Elmer Janus workstation. The odorant plates were spun down to remove air bubbles, and placed on the FDSS6000 plate loader, and 5 μL of odorant solution was applied to the cell plate on the FDSS6000. Ca^2+ increase was monitored with fluorescence at 525 nm by excitation at 485 nm.

[2] = target: OR10/OR7 (Anopheles gambiae, UniProt B5U0U7+Q7QCC7); assay: Ca2+-imaging of stable HEK293T cell line OR10/OR7; conditions: for inhibition at 4 µM: HEK-293T, compound applied at 4 μM, read-out: Percent Inhibition OR10 OR7
Protocol: as §2
After one day of incubation, the transfected cells were transferred into 10 cm dishes with DMEM containing antibiotics as follows: • 0.5 μg/mL of blasticidin for OR1/OR7, OR2/OR7, OR8/OR7, OR10/OR7, OR28/OR7 • 0.2 μg/mL of puromycin for TRPM8.
as §4, §5

[3] = target: T1, mOREG (Mus musculus, UniProt Q920P2); assay: Ca2+-imaging, control receptor mOREG; conditions: compound applied at 4 μM; read-out: Percent Inhibition mOREG
T1 sequence (Q920P2 1-313): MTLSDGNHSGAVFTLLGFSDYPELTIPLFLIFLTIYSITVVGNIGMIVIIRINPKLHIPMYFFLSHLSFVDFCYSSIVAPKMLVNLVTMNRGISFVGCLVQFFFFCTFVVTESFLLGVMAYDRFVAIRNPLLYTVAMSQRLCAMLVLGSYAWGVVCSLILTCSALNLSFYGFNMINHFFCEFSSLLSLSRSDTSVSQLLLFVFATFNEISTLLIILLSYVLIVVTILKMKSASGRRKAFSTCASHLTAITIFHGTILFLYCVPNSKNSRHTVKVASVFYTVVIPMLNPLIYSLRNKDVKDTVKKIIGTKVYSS
Protocol: as §4, with “plates. The last two columns of the plate (32 wells total) were used as control wells as follows: • negative control with HBSS buffer (16 wells) • positive control with ligands (16 wells).” for “plates.”
as §5

[4] = target: T2, TRP channel (TRPM8) (Mus musculus, UniProt Q8R4D5); assay: Ca2+-imaging of stable HEK293T cell line TRPM8; conditions: for inhibition at 4 µM: HEK-293T, compound applied at 4 μM, read-out: Percent Inhibition TRPM8
T2 construct: Full-length cDNAs for mosquito (Anopheles gambiae) odorant receptor (OR1, OR2, OR7, OR8, OR28), and fly (Drosophila melanogaster) odorant receptor (Or47a, Or83b), mouse TRP channel (TRPM8); expressed in transfected cells
Protocol: as §1, §2, §3, §4, §5

[5] = ligand 1-octen-3-ol 30 μM, read-out: IC50 OR8 OR7
[6] = ligand indole 30 μM, read-out: IC50 OR10 OR7
[7] = ligand menthol 300 μM, read-out: IC50 TRPM8

T2 sequence (Q8R4D5 whole entry): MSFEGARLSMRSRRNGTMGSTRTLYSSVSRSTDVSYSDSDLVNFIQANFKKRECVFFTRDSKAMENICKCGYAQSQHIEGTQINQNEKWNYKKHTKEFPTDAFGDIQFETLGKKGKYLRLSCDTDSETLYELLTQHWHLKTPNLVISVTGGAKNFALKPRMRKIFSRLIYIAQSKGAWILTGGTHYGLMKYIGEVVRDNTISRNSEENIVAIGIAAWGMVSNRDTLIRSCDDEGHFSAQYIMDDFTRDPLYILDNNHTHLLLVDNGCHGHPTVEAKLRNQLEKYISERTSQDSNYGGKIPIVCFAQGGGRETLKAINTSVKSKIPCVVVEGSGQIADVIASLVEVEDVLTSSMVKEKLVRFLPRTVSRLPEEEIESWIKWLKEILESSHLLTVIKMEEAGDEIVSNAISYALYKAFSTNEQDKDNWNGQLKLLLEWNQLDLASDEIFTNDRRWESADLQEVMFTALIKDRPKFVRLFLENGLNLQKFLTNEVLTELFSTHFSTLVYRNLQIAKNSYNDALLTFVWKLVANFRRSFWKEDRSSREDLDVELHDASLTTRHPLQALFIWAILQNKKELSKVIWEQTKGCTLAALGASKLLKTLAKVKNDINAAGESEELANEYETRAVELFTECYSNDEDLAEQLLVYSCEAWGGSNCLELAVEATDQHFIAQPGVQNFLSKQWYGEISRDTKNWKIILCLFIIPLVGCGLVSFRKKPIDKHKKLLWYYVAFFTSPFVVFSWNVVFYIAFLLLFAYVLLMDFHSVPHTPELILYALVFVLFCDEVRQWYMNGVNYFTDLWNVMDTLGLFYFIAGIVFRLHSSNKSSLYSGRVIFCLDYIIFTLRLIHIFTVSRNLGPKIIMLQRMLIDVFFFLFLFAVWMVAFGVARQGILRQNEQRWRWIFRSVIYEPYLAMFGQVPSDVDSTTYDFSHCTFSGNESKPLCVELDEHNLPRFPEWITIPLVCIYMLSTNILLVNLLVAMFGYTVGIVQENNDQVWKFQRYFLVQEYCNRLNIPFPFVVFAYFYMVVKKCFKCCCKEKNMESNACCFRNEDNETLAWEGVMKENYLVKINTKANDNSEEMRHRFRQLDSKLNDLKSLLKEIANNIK
Sequence of OR10/OR7 (Q7QCC7 whole entry): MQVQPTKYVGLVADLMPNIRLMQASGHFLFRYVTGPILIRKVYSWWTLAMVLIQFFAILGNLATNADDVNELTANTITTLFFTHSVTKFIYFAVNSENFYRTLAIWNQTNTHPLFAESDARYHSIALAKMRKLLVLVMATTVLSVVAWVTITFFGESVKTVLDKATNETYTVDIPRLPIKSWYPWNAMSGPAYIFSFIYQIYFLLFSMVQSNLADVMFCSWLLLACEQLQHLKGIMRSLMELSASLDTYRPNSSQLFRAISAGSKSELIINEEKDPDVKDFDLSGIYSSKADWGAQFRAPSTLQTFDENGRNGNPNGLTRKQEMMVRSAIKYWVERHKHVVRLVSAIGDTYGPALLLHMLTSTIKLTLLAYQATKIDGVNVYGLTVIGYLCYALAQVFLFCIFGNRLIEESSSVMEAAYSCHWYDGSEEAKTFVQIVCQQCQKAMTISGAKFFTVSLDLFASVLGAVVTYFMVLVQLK
Sequence of OR10/OR7 (B5U0U7 entry or part of it): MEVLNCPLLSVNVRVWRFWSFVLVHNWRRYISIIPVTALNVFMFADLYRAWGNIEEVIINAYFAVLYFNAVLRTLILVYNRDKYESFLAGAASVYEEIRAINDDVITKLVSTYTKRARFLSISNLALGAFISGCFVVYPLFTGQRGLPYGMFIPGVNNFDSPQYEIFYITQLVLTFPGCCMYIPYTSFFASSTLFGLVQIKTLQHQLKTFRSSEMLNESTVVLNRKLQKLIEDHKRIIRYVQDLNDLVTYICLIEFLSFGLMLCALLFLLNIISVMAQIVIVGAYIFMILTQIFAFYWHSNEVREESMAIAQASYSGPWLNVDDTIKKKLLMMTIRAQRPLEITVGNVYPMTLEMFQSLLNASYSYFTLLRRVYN
Sequence of OR8/OR7 (Q7QCC7 whole entry): as the sequence (Q7QCC7 whole entry) above
Sequence of OR8/OR7 (Q7PUT5 entry or part of it): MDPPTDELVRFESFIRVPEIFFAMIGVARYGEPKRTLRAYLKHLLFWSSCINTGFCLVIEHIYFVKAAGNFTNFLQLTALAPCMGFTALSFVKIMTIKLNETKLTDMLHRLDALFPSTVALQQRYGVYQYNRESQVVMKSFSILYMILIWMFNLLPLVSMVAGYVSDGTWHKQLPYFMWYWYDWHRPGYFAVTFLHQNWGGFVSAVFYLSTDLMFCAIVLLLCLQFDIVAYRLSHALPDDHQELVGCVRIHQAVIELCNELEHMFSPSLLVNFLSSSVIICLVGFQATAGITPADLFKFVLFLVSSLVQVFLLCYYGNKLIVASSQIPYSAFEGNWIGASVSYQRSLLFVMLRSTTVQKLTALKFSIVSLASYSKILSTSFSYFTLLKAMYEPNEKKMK

| Compound | IC50 [1, 5] [µM] | IC50 [2, 6] [µM] | IC50 [4, 7] [µM] | IC50 [1] [µM] | IC50 [2] [µM] | other results |
| --- | --- | --- | --- | --- | --- | --- |
| CC(C)CN(Cc1nccn1Cc1c(F)cccc1Cl)C(=O)c1ccc(F)cc1 [RU-0048054] |  |  |  |  |  | inhibition at 4 µM [1]: < 25%; inhibition at 4 µM [2]: 51 to 74%; IC50 ([2]; Table B, read-out: IC50 OR10): < 0.1 µM; inhibition at 4 µM [3]: < 25%; inhibition at 4 µM [4]: < 25% |
| O=C(c1cccnc1Cl)N1CCOC(COCc2c(Cl)cccc2Cl)C1 (stereo not shown) [RU-0050372] |  |  |  |  |  | inhibition at 4 µM [1]: < 25%; inhibition at 4 µM [2]: 26 to 50%; inhibition at 4 µM [3]: < 25%; inhibition at 4 µM [4]: < 25% |
| CC(C)N(Cc1nccn1Cc1c(F)cccc1Cl)C(=O)c1ccc(Cl)cc1 [RU-0055364] |  |  |  |  |  | inhibition at 4 µM [1]: 26 to 50%; inhibition at 4 µM [2]: > 75%; IC50 ([2]; Table B, read-out: IC50 OR10): 0.1 to 1 µM; inhibition at 4 µM [3]: 26 to 50%; inhibition at 4 µM [4]: < 25% |
| Fc1ccccc1/C=N/Nc1nc(N2CCCCC2)nc(N2CCOCC2)n1 [RU-0018338] |  |  |  |  |  | inhibition at 4 µM [1]: < 25%; inhibition at 4 µM [2]: 26 to 50%; inhibition at 4 µM [3]: 26 to 50%; inhibition at 4 µM [4]: 26 to 50% |
| COCCCN(Cc1c(-c2ccccc2)noc1N(C)C(C)C)C(=O)c1ccccc1OC [RU-0037003] |  |  |  |  |  | inhibition at 4 µM [1]: 26 to 50%; inhibition at 4 µM [2]: < 25%; inhibition at 4 µM [3]: 26 to 50%; inhibition at 4 µM [4]: < 25% |
| CCN(CC)C(=O)c1cccc(C)c1 [DEET, N,N-diethyl-m-toluamide, reference compound] | > 50 | > 50 | > 20 |  |  |  |
| CC(C)Nc1nc(Cl)nc(N(C)C(C)C)n1 [RU-T7] |  |  |  | < 2 | > 20 | IC50 [4]: > 20 µM |
| CSc1nc(NC(C)C)nc(NC(C)C)n1 [RU-T2] |  |  | > 20 | < 2 | 2 to 20 |  |
| Cc1nc(NC(C)C)nc(NC(C)C)n1 [RU-T6] |  |  |  | < 2 | > 20 | IC50 [4]: > 20 µM |
| CC(C)Nc1nc(Cl)nc(NC(C)C)n1 [RU-T1] |  |  | > 20 | > 220 | > 20 |  |
| CC(C)Nc1nc(NC(C)C)nc(C(F)(F)F)n1 [RU-T8] |  |  |  | 2 to 20 | > 20 | IC50 [4]: > 20 µM |
| CCNc1nc(NCC)nc(SC)n1 [RU-T4] |  |  | > 20 | 2 to 20 | 20 to 50 |  |
| CN(Cc1nccn1Cc1c(F)cccc1Cl)C(=O)C1CCCC1 [RU-I5] | 2 to 20 | > 20 | > 20 |  |  |  |
| O=C(c1nccn1Cc1c(F)cccc1Cl)N(CC1CCCC1)C1CC1 [RU-I3] | < 2 | 2 to 20 | > 20 |  |  |  |
| C=CCN(Cc1nccn1Cc1cccc(F)c1)C(=O)c1ccccc1F [RU-I1] | 20 to 50 | 2 to 20 | > 20 |  |  |  |
| Fc1cccc(Cl)c1Cn1ccnc1CN(CC1CCCC1)C1CC1 [RU-I4] | > 220 | > 20 | > 20 |  |  |  |
| O=C(C1CCCC1)N(Cc1nccn1CCc1c(F)cccc1Cl)C1CC1 [RU-I2] | 2 to 20 | 2 to 20 | > 20 |  |  |  |

Reference: patent US20130324522A1, “INSECT ODORANT RECEPTOR ANTAGONISTS” (THE ROCKEFELLER UNIVERSITY, priority 2010, published 2013)
